Results reported in ChEMBL document CHEMBL2434936, “Bicyclic and tricyclic heterocycle derivatives as histamine H3 receptor antagonists for the treatment of obesity” (Bioorg Med Chem Lett, 2013).
Active and inactive are the calls of the source. No cut-off for these calls is given here.

What was measured:
Histamine H3 receptor [1] = target: Histamine H3 receptor (Mus musculus, UniProt P58406); experiment: Displacement of [3H]N-alpha-methylhistamine from mouse histamine H3 receptor after 30 mins by scintillation counting analysis
Histamine H3 receptor [2] = target: Histamine H3 receptor (Homo sapiens, UniProt Q9Y5N1); experiment: Displacement of [3H]N-alpha-methylhistamine from human recombinant histamine H3 receptor expressed in HEK cells after 30 mins by scintillation counting analysis; format: cell-based, HEK293
Cytochrome P450 3A4 = Cytochrome P450 3A4 (Homo sapiens, UniProt P08684); experiment: Inhibition of CYP3A4 in human liver microsomes; format: ADME, Microsome
Cytochrome P450 2D6 = Cytochrome P450 2D6 (Homo sapiens, UniProt P10635); experiment: Inhibition of CYP2D6 in human liver microsomes; format: ADME, Microsome
Mus musculus [3] = experiment: Ex vivo displacement of [3H]N-alpha-methylhistamine from histamine H3 receptor in mouse cortex at 10 mg/kg, po after 4 hrs by topcount scintillation counting analysis; format: functional
hERG (KCNH2) = hERG (KCNH2) (Homo sapiens, UniProt Q12809); experiment: Inhibition of human ERG channel at 5 ug/ml after 30 mins by rubidium efflux assay
Cytochrome P450 2C9 = Cytochrome P450 2C9 (Homo sapiens, UniProt P11712); experiment: Inhibition of CYP2C9 in human liver microsomes; format: ADME, Microsome
Mus musculus [4] = experiment: Antiobesity activity in diet-induced obesity mouse model assessed as reduction in body weight at 1 mg/kg, po after 4 days relative to vehicle-treated control; format: functional; conditions: 96 h
Mus musculus [5] = experiment: Antiobesity activity in diet-induced obesity mouse model assessed as reduction in body weight at 3 mg/kg, po after 4 days relative to vehicle-treated control; format: functional; conditions: 96 h
Mus musculus [6] = experiment: Ex vivo displacement of [3H]N-alpha-methylhistamine from histamine H3 receptor in mouse cortex at 3 mg/kg, po after 4 hrs by topcount scintillation counting analysis; format: functional
Mus musculus [7] = experiment: Antiobesity activity in diet-induced obesity mouse model assessed as reduction in body weight at 10 mg/kg, po after 4 days relative to vehicle-treated control; format: functional; conditions: 96 h
Mus musculus [8] = species: Mus musculus; experiment: Ex vivo receptor occupancy of histamine H3 receptor in mouse brain after 72 hrs by time-course method; format: functional, organism-based
[9] = Drug uptake in rat brain at 100 mg/kg, po after 4 hrs by Irwin test; format: ADME, organism-based; parameters: dose 100 mg/kg, route oral; conditions: read-out: Drug uptake
[10] = Plasma concentration in rat at 100 mg/kg, po after 4 hrs by Irwin test; format: ADME, organism-based; parameters: dose 100 mg/kg, route oral
Rattus norvegicus = experiment: Toxicity in rat assessed as behavioral change at 100 to 300 mg/kg, po by Irwin test; format: organism-based; parameters: dose 100-300 mg/kg, route oral; conditions: in vivo
[11] = Drug uptake in rat brain at 300 mg/kg, po after 4 hrs by Irwin test; format: ADME, organism-based; parameters: dose 300 mg/kg, route oral; conditions: read-out: Drug uptake
[12] = Plasma concentration in rat at 300 mg/kg, po after 4 hrs by Irwin test; format: ADME, organism-based; parameters: dose 300 mg/kg, route oral
Mus musculus [13] = experiment: Ex vivo displacement of [3H]N-alpha-methylhistamine from histamine H3 receptor in mouse cortex at 1 mg/kg, po after 4 hrs by topcount scintillation counting analysis; format: functional

Chain of Histamine H3 receptor (Homo sapiens, UniProt Q9Y5N1) (Q9Y5N1 whole entry): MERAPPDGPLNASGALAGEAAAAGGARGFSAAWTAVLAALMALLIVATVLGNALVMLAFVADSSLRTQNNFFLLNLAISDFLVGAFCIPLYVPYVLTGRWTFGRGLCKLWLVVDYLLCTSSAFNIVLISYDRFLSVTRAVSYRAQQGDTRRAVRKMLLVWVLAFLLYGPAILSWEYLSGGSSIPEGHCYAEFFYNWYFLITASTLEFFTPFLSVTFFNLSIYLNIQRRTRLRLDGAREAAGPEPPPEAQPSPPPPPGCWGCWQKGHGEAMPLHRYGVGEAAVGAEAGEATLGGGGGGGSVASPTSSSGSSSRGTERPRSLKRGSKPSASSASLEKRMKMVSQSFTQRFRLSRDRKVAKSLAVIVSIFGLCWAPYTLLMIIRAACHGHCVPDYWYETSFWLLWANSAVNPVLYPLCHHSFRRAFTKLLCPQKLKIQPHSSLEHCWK
Chain of Cytochrome P450 3A4 (P08684 whole entry): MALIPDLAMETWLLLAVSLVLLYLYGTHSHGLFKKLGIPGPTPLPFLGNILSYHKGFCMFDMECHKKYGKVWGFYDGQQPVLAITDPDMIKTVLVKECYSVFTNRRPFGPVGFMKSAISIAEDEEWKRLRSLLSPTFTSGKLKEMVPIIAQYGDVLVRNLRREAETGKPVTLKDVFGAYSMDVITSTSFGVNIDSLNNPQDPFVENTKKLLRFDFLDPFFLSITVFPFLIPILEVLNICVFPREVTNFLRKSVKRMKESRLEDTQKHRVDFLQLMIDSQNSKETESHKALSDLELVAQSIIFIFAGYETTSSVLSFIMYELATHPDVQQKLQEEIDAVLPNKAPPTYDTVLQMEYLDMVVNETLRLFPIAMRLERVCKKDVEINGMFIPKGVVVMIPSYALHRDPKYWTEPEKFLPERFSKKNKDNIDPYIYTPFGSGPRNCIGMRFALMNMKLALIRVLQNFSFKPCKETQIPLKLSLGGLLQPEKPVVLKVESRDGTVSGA
Chain of Cytochrome P450 2D6 (P10635 whole entry): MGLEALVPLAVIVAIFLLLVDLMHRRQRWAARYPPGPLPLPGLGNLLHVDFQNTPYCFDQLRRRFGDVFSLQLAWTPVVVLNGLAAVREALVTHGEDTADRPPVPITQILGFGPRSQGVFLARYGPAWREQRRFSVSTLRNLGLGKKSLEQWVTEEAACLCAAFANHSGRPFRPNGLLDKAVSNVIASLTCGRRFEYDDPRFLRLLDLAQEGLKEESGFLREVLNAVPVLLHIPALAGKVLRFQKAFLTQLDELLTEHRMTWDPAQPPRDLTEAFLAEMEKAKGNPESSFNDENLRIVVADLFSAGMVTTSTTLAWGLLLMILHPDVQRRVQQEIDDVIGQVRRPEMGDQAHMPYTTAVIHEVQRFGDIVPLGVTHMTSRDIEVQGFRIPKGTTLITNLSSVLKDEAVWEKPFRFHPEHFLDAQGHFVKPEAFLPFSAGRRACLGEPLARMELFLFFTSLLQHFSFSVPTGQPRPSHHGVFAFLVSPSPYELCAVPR
Chain of Cytochrome P450 2C9 (P11712 whole entry): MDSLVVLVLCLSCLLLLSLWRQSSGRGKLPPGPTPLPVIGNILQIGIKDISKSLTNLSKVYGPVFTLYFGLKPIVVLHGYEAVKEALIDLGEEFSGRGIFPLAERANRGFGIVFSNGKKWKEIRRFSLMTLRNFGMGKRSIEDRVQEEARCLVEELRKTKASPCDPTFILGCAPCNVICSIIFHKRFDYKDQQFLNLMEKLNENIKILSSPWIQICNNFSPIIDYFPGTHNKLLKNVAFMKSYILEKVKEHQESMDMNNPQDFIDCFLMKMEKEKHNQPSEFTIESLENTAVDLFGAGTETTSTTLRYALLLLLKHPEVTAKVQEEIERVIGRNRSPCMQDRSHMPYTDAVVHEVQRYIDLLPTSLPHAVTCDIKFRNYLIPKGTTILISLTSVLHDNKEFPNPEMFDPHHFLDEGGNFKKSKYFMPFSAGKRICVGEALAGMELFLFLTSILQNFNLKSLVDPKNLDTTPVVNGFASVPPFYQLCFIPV
Chain of hERG (KCNH2) (Q12809 whole entry): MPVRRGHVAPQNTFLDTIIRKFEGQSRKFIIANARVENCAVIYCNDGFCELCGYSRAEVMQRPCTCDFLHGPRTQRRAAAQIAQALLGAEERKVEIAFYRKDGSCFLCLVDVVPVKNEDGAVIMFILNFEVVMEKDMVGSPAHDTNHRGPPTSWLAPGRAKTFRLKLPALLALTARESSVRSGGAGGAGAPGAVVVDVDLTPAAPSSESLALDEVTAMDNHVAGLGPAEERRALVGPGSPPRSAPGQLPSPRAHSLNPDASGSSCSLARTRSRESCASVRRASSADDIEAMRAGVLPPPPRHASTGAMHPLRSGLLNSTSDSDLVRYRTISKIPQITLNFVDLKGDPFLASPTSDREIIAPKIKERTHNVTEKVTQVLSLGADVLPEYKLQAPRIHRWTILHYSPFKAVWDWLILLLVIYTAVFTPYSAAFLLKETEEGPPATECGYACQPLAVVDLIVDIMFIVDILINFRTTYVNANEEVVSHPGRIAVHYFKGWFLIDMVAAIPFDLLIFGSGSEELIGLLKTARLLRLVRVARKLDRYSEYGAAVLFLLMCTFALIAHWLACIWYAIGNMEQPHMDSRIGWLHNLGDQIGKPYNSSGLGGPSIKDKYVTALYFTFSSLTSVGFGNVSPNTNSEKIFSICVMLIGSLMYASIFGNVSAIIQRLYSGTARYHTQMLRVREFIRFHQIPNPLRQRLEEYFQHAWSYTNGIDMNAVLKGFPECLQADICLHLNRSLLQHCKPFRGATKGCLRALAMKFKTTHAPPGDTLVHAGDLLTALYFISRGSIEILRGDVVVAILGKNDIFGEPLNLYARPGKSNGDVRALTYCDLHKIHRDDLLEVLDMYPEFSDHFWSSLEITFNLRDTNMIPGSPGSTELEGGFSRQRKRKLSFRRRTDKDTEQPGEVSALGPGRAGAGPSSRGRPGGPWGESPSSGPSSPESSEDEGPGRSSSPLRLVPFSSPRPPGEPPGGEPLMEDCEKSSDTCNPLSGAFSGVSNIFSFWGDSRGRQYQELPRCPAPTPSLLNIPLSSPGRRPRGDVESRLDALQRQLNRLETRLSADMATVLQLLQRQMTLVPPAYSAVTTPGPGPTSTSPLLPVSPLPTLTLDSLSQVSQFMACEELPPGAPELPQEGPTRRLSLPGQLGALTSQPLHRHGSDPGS
Chain of Histamine H3 receptor (Mus musculus, UniProt P58406) (P58406 whole entry): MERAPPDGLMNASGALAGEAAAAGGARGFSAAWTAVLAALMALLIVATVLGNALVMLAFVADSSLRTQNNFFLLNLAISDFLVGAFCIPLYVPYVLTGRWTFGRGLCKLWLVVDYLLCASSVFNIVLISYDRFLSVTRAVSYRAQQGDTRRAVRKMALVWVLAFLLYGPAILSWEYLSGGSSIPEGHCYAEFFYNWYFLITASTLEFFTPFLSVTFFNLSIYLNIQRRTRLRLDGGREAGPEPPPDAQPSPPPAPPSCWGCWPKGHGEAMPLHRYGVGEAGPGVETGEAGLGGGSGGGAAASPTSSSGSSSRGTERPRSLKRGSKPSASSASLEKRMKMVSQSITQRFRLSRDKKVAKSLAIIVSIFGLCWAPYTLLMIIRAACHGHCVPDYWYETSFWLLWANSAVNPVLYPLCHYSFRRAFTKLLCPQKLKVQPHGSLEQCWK

SMILES	Ki (Histamine H3 receptor [1]) [nM]	Ki (Histamine H3 receptor [2]) [nM]	IC50 (Cytochrome P450 3A4) [nM]	IC50 (Cytochrome P450 2D6) [nM]	IC50 (Cytochrome P450 2C9) [nM]	Activity (Mus musculus [8])	concentration at 4 h [9] [ng/g]	concentration at 4 h [10] [ng/mL]	concentration at 4 h [11] [ng/g]	concentration at 4 h [12] [ng/mL]	inhibition in vivo at 10 mg/kg (Mus musculus [3]) [%]	inhibition at 0.5 h, 5 ug/ml (hERG (KCNH2)) [%]	inhibition in vivo at 1 mg/kg (Mus musculus [4]) [%]	inhibition in vivo at 3 mg/kg (Mus musculus [5]) [%]	inhibition in vivo at 3 mg/kg (Mus musculus [6]) [%]	inhibition in vivo at 10 mg/kg (Mus musculus [7]) [%]	Activity (Rattus norvegicus)	inhibition in vivo at 1 mg/kg (Mus musculus [13]) [%]
Nc1cc(CN2CCC(F)(C(=O)N3CCC(N4c5ccccc5Sc5ccccc54)CC3)CC2)ccn1	7	7	> 30000	> 30000	> 30000	–	–	–	–	–	84	40	–	–	–	–	–	–
Nc1cc(CN2CCC(F)(C(=O)N3CCC(N4Cc5ccccc5-c5ccccc5C4)CC3)CC2)ccn1	4	2	18000	300	> 30000	–	–	–	–	–	–	27	28	38	91	65	–	–
Cc1nnc2n1-c1sccc1C(=O)N(C1CCN(C(=O)C3(F)CCN(Cc4ccnc(N)c4)CC3)CC1)C2	70	27	> 30000	> 30000	> 30000	–	–	–	–	–	0	6	–	–	–	–	–	–
Nc1cc(CN2CCC(F)(C(=O)N3CCC(N4c5ccccc5Sc5cccnc54)CC3)CC2)ccn1	26	7	–	–	–	–	–	–	–	–	89	54	–	–	–	–	–	–
Cc1nnc2n1-c1sccc1CN(C1CCN(C(=O)C3(F)CCN(Cc4ccnc(N)c4)CC3)CC1)C2	2	1	> 30000	> 30000	> 30000	–	–	–	–	–	14	9	–	–	–	–	–	–
Nc1cc(CN2CCC(F)(C(=O)N3CCC(N4c5ccccc5Sc5ccc(C(F)(F)F)cc54)CC3)CC2)ccn1	51	11	–	–	–	–	–	–	–	–	25	79	–	–	–	–	–	–
Nc1cc(CN2CCC(F)(C(=O)N3CCC(N4Cc5ccc(F)cc5C4)CC3)CC2)ccn1	7	2	> 30000	> 30000	> 30000	–	–	–	–	–	–	4	–	–	94	–	–	–
COc1ccc2c(c1)CCCN(C1CCN(C(=O)C3(F)CCN(Cc4ccnc(N)c4)CC3)CC1)C2	3	1	> 30000	> 30000	> 30000	–	–	–	–	–	74	12	–	–	–	–	–	–
Nc1cc(CN2CCC(F)(C(=O)N3CCC(N4Cc5ccccc5Cc5ccccc54)CC3)CC2)ccn1	44	4	18000	> 30000	4000	–	–	–	–	–	–	50	–	–	–	–	–	–

Further lines, with some results ahead:

Ki (Histamine H3 receptor [1]) [nM]	Ki (Histamine H3 receptor [2]) [nM]	IC50 (Cytochrome P450 3A4) [nM]	IC50 (Cytochrome P450 2D6) [nM]	IC50 (Cytochrome P450 2C9) [nM]	Activity (Mus musculus [8])	concentration at 4 h [9] [ng/g]	concentration at 4 h [10] [ng/mL]	concentration at 4 h [11] [ng/g]	concentration at 4 h [12] [ng/mL]	SMILES	inhibition in vivo at 10 mg/kg (Mus musculus [3]) [%]	inhibition at 0.5 h, 5 ug/ml (hERG (KCNH2)) [%]	inhibition in vivo at 1 mg/kg (Mus musculus [4]) [%]	inhibition in vivo at 3 mg/kg (Mus musculus [5]) [%]	inhibition in vivo at 3 mg/kg (Mus musculus [6]) [%]	inhibition in vivo at 10 mg/kg (Mus musculus [7]) [%]	Activity (Rattus norvegicus)	inhibition in vivo at 1 mg/kg (Mus musculus [13]) [%]
46	15	> 30000	> 30000	> 30000	–	–	–	–	–	Cn1c2c(c3ccccc31)CCN(C1CCN(C(=O)C3(F)CCN(Cc4ccnc(N)c4)CC3)CC1)CC2	–	21	–	–	–	–	–	–
15	7	–	–	–	–	–	–	–	–	Nc1cc(CN2CCC(F)(C(=O)N3CCC(N4Cc5cccnc5C4)CC3)CC2)ccn1	–	–	–	–	–	–	–	–
115	36	> 30000	> 30000	> 30000	–	–	–	–	–	Nc1cc(CN2CCC(F)(C(=O)N3CCC(N4CCCc5ccccc5C4)CC3)CC2)ccn1	78	25	–	–	–	–	–	–
4	2	> 30000	> 30000	> 30000	–	–	–	–	–	COc1ccc2c(c1)CN(C1CCN(C(=O)C3(F)CCN(Cc4ccnc(N)c4)CC3)CC1)CCC2	77	7	–	–	–	–	–	–
3	1	> 30000	> 30000	> 30000	Active	13700	836	47100	4940	Nc1cc(CN2CCC(F)(C(=O)N3CCC(N4CCc5ccccc5CC4)CC3)CC2)ccn1	98	-2	38	52	–	89	Non-toxic	–
4	2	> 30000	> 30000	> 30000	–	–	–	–	–	Nc1cc(CN2CCC(F)(C(=O)N3CCC(N4CCc5ccccc5C4)CC3)CC2)ccn1	–	2	–	–	–	–	–	73
2	2	> 30000	> 30000	> 30000	–	–	–	–	–	N#Cc1ccc2c(c1)CN(C1CCN(C(=O)C3(F)CCN(Cc4ccnc(N)c4)CC3)CC1)CC2	–	11	–	–	–	–	–	52
4	2	> 30000	> 30000	> 30000	–	–	–	–	–	Nc1cc(CN2CCC(F)(C(=O)N3CCC(N4Cc5ccccc5C4)CC3)CC2)ccn1	–	-2	–	–	–	–	–	81
3	1	> 30000	> 30000	> 30000	–	–	–	–	–	Nc1cc(CN2CCC(F)(C(=O)N3CCC(N4CCNc5ccccc5C4)CC3)CC2)ccn1	–	12	–	–	22	–	–	–
